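Each compound was tested at five concentrations against cells in 96-well plates for 48 hours. Abbreviation: GI50, concentration required for 50% inhibition of growth. TGI marks complete inhibition of growth.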
What was measured:
Experiment in all cases: growth of human tumour cells (NCI), 48 h
[1] = tested on: SK-OV-3 ovarian
[2] = tested on: SN12C renal
[3] = tested on: NCI-H23 lung
[4] = tested on: MDA-MB-231 breast
[5] = tested on: MOLT-4 leukemia
[6] = tested on: NCI-H460 lung
[7] = tested on: PC-3 prostate
[8] = tested on: MALME-3M melanoma
[9] = tested on: BT-549 breast
[10] = tested on: K-562 leukemia
[11] = tested on: SW-620 colon
[12] = tested on: SK-MEL-2 melanoma
[13] = tested on: LOX IMVI melanoma
[14] = tested on: KM12 colon
[15] = tested on: UACC-62 melanoma
[16] = tested on: OVCAR-3 ovarian
[17] = tested on: OVCAR-4 ovarian
[18] = tested on: SNB-19 CNS
[19] = tested on: NCI-H226 lung
[20] = tested on: T-47D breast
[21] = tested on: RXF 393 renal
[22] = tested on: U251 CNS
[23] = tested on: HCT-116 colon
[24] = tested on: EKVX NSCLC
[25] = tested on: M14 melanoma
[26] = tested on: A498 renal
[27] = tested on: HOP-62 NSCLC
[28] = tested on: 786-0 renal
[29] = tested on: SK-MEL-5 melanoma
[30] = tested on: NCI/ADR-RES ovarian
[31] = tested on: CAKI-1 renal
[32] = tested on: SF-539 CNS
[33] = tested on: OVCAR-5 ovarian
[34] = tested on: RPMI-8226 leukemia
[35] = tested on: TK-10 renal
[36] = tested on: SF-268 CNS
[37] = tested on: DU-145 prostate
[38] = tested on: UACC-257 melanoma
[39] = tested on: A549 NSCLC
[40] = tested on: OVCAR-8 ovarian
[41] = tested on: HL-60(TB) leukemia
[42] = tested on: UO-31 renal
[43] = tested on: MDA-MB-435
[44] = tested on: IGROV1 ovarian
[45] = tested on: HS 578T breast
[46] = tested on: SR leukemia
[47] = tested on: SK-MEL-28 melanoma
[48] = tested on: MCF7 breast
[49] = tested on: NCI-H522 lung
[50] = tested on: COLO 205 colon
[51] = tested on: CCRF-CEM leukemia
[52] = tested on: SF-295 CNS

`O=C1C(Cl)=C(Nc2cccc(O)c2)C(=O)N1Cc1ccc(Cl)cc1` gave a GI50 [1] of 3.7 µM, a TGI [1] of 19.9 µM and a GI50 [2] of 2.72 µM. It also gave a TGI [2] of 8.5 µM, a GI50 [3] of 2.17 µM and a TGI [3] of 8.31 µM. It also gave a GI50 [4] of 1.1 µM, a TGI [4] of 5.64 µM and a GI50 [5] of 1.35 µM. It also gave a TGI [5] greater than 100 µM, a GI50 [6] of 2.87 µM and a TGI [6] of 14 µM. It also gave a GI50 [7] of 3.45 µM, a TGI [7] of 86.9 µM and a GI50 [8] of 0.464 µM. The TGI [8] was 8.11 µM, the GI50 [9] was 2.54 µM and the TGI [9] was 16.6 µM. It also gave a GI50 [10] of 1.36 µM, a TGI [10] of 4.52 µM and a GI50 [11] of 2.56 µM. The TGI [11] was 24.8 µM, the GI50 [12] was 1.83 µM and the TGI [12] was 9.36 µM. The GI50 [13] was 1.47 µM, the TGI [13] was 6.34 µM and the GI50 [14] was 2.11 µM. The TGI [14] was 11.3 µM, the GI50 [15] was 1.27 µM and the TGI [15] was 4.79 µM. It also gave a GI50 [16] of 1.43 µM, a TGI [16] of 5.86 µM and a GI50 [17] of 11.2 µM. The TGI [17] was greater than 100 µM, the GI50 [18] was 2.64 µM and the TGI [18] was 23.5 µM. For the same compound, the GI50 [19] was 1.21 µM, the TGI [19] was 4.91 µM and the GI50 [20] was 10.7 µM. It also gave a TGI [20] of 54 µM, a GI50 [21] of 3.95 µM and a TGI [21] greater than 100 µM. It also gave a GI50 [22] of 1.86 µM, a TGI [22] of 26.9 µM and a GI50 [23] of 3.66 µM. For the same compound, the TGI [23] was 25 µM, the GI50 [24] was 13.6 µM and the TGI [24] was 48.6 µM. The GI50 [25] was 4.43 µM, the TGI [25] was 23.2 µM and the GI50 [26] was 5 µM. For the same compound, the TGI [26] was 21.8 µM, the GI50 [27] was 4.55 µM and the TGI [27] was 23 µM. It also gave a GI50 [28] of 1.63 µM, a TGI [28] of 28.1 µM and a GI50 [29] of 5.69 µM. The TGI [29] was 21.1 µM, the GI50 [30] was 1.58 µM and the TGI [30] was 10.2 µM. The GI50 [31] was 1.74 µM, the TGI [31] was 10.1 µM and the GI50 [32] was 2.63 µM. It also gave a TGI [32] of 16.6 µM, a GI50 [33] of 15.6 µM and a TGI [33] of 31.6 µM. For the same compound, the GI50 [34] was 1.07 µM, the TGI [34] was greater than 100 µM and the GI50 [35] was 5.86 µM. It also gave a TGI [35] of 19.8 µM, a GI50 [36] of 4.26 µM and a TGI [36] of 18.6 µM. The GI50 [37] was 5.48 µM, the TGI [37] was 24.1 µM and the GI50 [38] was 8.18 µM. It also gave a TGI [38] of 25 µM, a GI50 [39] of 5.22 µM and a TGI [39] of 37.4 µM. It also gave a GI50 [40] of 3.65 µM, a TGI [40] of 44.4 µM and a GI50 [41] of 0.993 µM. For the same compound, the TGI [41] was 11 µM, the GI50 [42] was 10.3 µM and the TGI [42] was greater than 100 µM. The GI50 [43] was 1.22 µM, the TGI [43] was 10.1 µM and the GI50 [44] was 3.93 µM. For the same compound, the TGI [44] was 40 µM, the GI50 [45] was 8.51 µM and the TGI [45] was greater than 100 µM. The GI50 [46] was 0.358 µM, the TGI [46] was 14.8 µM and the GI50 [47] was 4.93 µM. For the same compound, the TGI [47] was 23 µM, the GI50 [48] was 2.75 µM and the TGI [48] was 14.6 µM. It also gave a GI50 [49] of 3.18 µM, a TGI [49] of 21.7 µM and a GI50 [50] of 3.38 µM. It also gave a TGI [50] of 20.8 µM, a GI50 [51] of 2.98 µM and a TGI [51] greater than 100 µM. It also gave a GI50 [52] of 2.68 µM and a TGI [52] of 18.5 µM.

Source: PubChem BioAssay (NCI)
